Source: US20070190060A1, “Passive targeting of cytotoxic agents” (Wyeth, priority 2004, published 2007)
Where “and” joins values, the source holds several entries; their conditions need not be identical. Equal values may be shown once.

Columns and labels:
[1] = system: A431 epidermoid carcinoma xenografts; assay: Tumor growth inhibition, subcutaneous A431 xenografts; type: in vivo, athymic nude mice; conditions: for average tumor size as % of the control tumors: intravenous, twenty-seven days following onset of therapy
Protocol: (§1) Subcutaneous tumors of N87, LOVO, A431/Le^y, LS174T and L2987 were grown in athymic nude mice (Charles River, Wilmington, Mass.). Two-month-old female mice were injected with respectively 5×10^6 N87, LOVO, A431/Le^y or LS174T cells per mouse. L2987 cells were injected in male nude mice that were between 7 and 8 weeks old. To grow tumors, N87 cells had to be mixed (1:1, vol/vol) with […]® (Collaborative Biomedical Products, Belford, Mass.) prior to injection. Two perpendicular diameters of the tumor were measured by means of calipers at time intervals specified in the result section. The tumor volume was calculated according to the formula of Attia&Weiss: A^2×B×0.4. A and B are symbols for the smaller and the larger tumor diameter, respectively.
[…] Mice with xenografts of approximately 80 mm^3 were selected prior to treatment. The amounts of CalichDMH or conjugate given are expressed in calicheamicn equivalents.
Both T and C are determined at the same day following initiation of treatment.

[2] = system: KB 8.5 xenografts; assay: Tumor growth inhibition, subcutaneous KB 8.5 xenografts; type: in vivo, athymic nude mice; conditions: 4.00 μg per dose, Q4D×3, 22 days after first dose
[3] = In vivo distribution of 125I-labeled conjugate in A431 tumor-bearing mice; parameters: species or system female nude mice
Protocol: Gemtuzumab ozogamicin was labeled with ^125I using the Bolton-Hunter reagent (NEN, Boston, Mass.). A group of 30 tumor-bearing female nude mice were injected in the lateral tail vein with ^125I-labeled conjugate 20 μCi/[…]. The tumor weight at the time of injection was approximately 1 g. Groups of 5 mice were killed by CO2 inhalation at 2, 6, 24, 48, 72 and 96 h following the injection. The amount of γ radiation in the tissues as specified in FIG. 2 was determined at these time points. Biodistribution of the conjugate was expressed as a percentage of the injected dose per gram tissue (% ID/g) or as a percentage of the blood level at a given time point (% Blood). Steadily increasing concentrations of hp67.6-AcBut-CalichDMH were exclusively observed in tumor tissue. The doubling time of accumulation is 150 h for A431 tumors.
The kinetics of hp67.6-AcBut-CalichDMH in various mouse tissues and in CD33-negative A431-tumor xenografted tumor were compared. Following injection of 200 µg (20 μCi) ^125I labeled conjugate, the amount of radioactive label was measured in various tissues at 2, 6, 24, 48, 72 and 96 h (FIG. 2). The amount of radioactive material was expressed relative to the amount present in whole blood at the time of measurement (% Blood, Y1 axes in FIG. 2). Percent blood (% Blood) is given by the formula, 100×Bq per gram tissue/Bq per gram blood. In addition, the amount of radioactive material was also expressed relative to total amount of conjugate given (% ID/g, Y2 axes in FIG. 2). Only a marginal amount of 125I labeled conjugate is retained in the brain. […] The % Blood was on average 3.5%.

[4] = system: LNCaP xenografts; assay: Tumor growth inhibition, subcutaneous LNCaP xenografts; type: in vivo, athymic nude mice
[5] = system: PC14PE6 xenografts; assay: Tumor growth inhibition, subcutaneous PC14PE6 xenografts; type: in vivo, athymic nude mice
[6] = system: HT29 xenografts; assay: Tumor growth inhibition, subcutaneous HT29 xenografts; type: in vivo, athymic nude mice; conditions: 4.00 μg per dose, Q4D×3, 33 days after first dose
[7] = system: L2987 xenografts; assay: Tumor growth inhibition, subcutaneous L2987 xenografts; type: in vivo, athymic nude mice
Protocol: as §1, with “respectively. The treatment schedules, dose and number of mice per group are specified in the result section and in the figure legends.” for “respectively.”
(§2) As shown in Table 2 (tumor volume reduction of CD33-tumor xenografts following treatment (T) with hp67.6-AcBut-CalichDMH and expressed as a percentage of controls treated with vehicle (T/C %)), hp67.6-AcBut-CalichDMH inhibited tumor growth of human tumor xenografts with diverse histiotypic origin. […] This value is the average tumor volume of a group of mice that were treated with hp67.6-AcBut-CalichDMH (T) expressed as a percentage of the average tumor volume of a control group (C). Both T and C are determined at the same day following initiation of treatment. The T/C-values in table II were derived from 27 independent experiments and were determined between 17 and 34 days after injection of the first dose of hp67.6-AcBut-CalichDMH. […] Significant inhibition was also observed when lower amounts of the conjugate were administered.

[8] = system: MDAMB435/5T4 xenografts; assay: Tumor growth inhibition, subcutaneous MDAMB435/5T4 xenografts; type: in vivo, athymic nude mice
[9] = system: A431/Le^Y xenografts; assay: Tumor growth inhibition, subcutaneous A431/LeY xenografts; type: in vivo, athymic nude mice
Protocol: as §1, with “respectively. […]” for “respectively.”
As shown in Table 2 (tumor volume reduction of CD33-tumor xenografts following treatment (T) with hp67.6-AcBut-CalichDMH and expressed as a percentage of controls treated with vehicle (T/C %)), hp67.6-AcBut-CalichDMH inhibited tumor growth of human tumor xenografts with diverse histiotypic origin. […] This value is the average tumor volume of a group of mice that were treated with hp67.6-AcBut-CalichDMH (T) expressed as a percentage of the average tumor volume of a control group (C). Both T and C are determined at the same day following initiation of treatment. […]

[10] = system: N87 xenografts; assay: Tumor growth inhibition, subcutaneous N87 xenografts; type: in vivo, athymic nude mice
Protocol: as §1, with “respectively. The treatment schedules, dose and number of mice per group are specified in the result section and in the figure legends.” for “respectively.”
as §2

[11] = system: LOVO xenografts; assay: Tumor growth inhibition, subcutaneous LOVO xenografts; type: in vivo, athymic nude mice; conditions: for T/C (%): LOVO, 4.00 μg per dose, Q4D×3
Protocol: as §1, with “respectively. The treatment schedules, dose and number of mice per group are specified in the result section and in the figure legends.” for “respectively.”
as §2

[12] = system: PC3MM2 xenografts; assay: Tumor growth inhibition, subcutaneous PC3MM2 xenografts; type: in vivo, athymic nude mice; conditions: 4.00 μg per dose, Q4D×3, 29 days after first dose
[13] = intraperitoneally Q4D×3, equivalent or higher doses than hp67.6-AcBut-CalichDMH (FIGS. 1B and 1C)
[14] = intravenous administration, same dose, frequency and interval (Q4D×3)
[15] = 1.00 μg per dose, 28 days after first dose
[16] = 2.00 μg per dose, 28 days after first dose
[17] = 2.00 μg per dose, 29 days after first dose
[18] = 4.00 μg per dose, Q4D×3, 28 days after first dose
[19] = 4.00 μg per dose, Q4D×3, 29 days after first dose
[20] = 2.00 μg per dose, 30 days after first dose
[21] = 4.00 μg per dose, Q4D×3, 30 days after first dose

## CCN(C(C)=O)[C@H]1CO[C@@H](O[C@H]2[C@H](O[C@H]3C#C/C=C\C#C[C@]4(O)CC(=O)C(NC(=O)OC)=C3/C4=C\CSSC(C)(C)CC(=O)NN)O[C@H](C)[C@@H](NO[C@H]3C[C@H](O)[C@H](SC(=O)c4c(C)c(I)c(O[C@@H]5O[C@@H](C)[C@H](O)[C@@H](OC)[C@H]5O)c(OC)c4OC)[C@@H](C)O3)[C@@H]2O)C[C@@H]1OC [CalichDMH, N-acetyl-γ-calicheamicin dimethyl hydrazide]
[1]; [13]
  tumor growth inhibition of A431 xenografts: did not inhibit tumor growth
[1]; [14]
  tumor growth inhibition of A431 xenografts: did not yield significant tumor growth inhibition

## hp67.6-AcBut-CalichDMH: antibody against CD33 (hp67.6) bound to N-acetyl gamma calicheamicin dimethyl hydrazide by the acid labile AcBut linker
[2]
  T/C (%): 27%
[3]; A431 tumor tissue, 2 to 96 h
  % ID/g value in function of time, tumor tissue: steady increase
[3]; A431 tumors, 125I-labeled conjugate, lateral tail vein
  doubling time of accumulation in tumor: 150 h
[3]; brain, within 96 hours, 125I-labeled conjugate
  % Blood (100×Bq per gram tissue/Bq per gram blood), brain, on average: 3.5%
[3]; heart, intestine and spleen, after injection, then steadily decreased
  time of highest % Blood-value: 2 h
[3]; liver and striated muscle
  time of peak of the % Blood-value: 48 h
[3]; normal tissues, 2 to 96 h
  % ID/g in function of time, all the other tissues examined: decreased in function of time
[3]; skin
  time after which % Blood-value reached a plateau: 24 h
[4]; 0.50 μg per dose, 28 days after first dose
  T/C (%): 102%
[4]; [15]
  T/C (%): 59%
[4]; [16]
  T/C (%): 30%
[4]; [17]
  T/C (%): 34%
[4]; [18]
  T/C (%): 24%
[4]; [19]
  T/C (%): 7%
[5]; 1.00 μg per dose, 29 days after first dose
  T/C (%): 52%
[5]; 2.00 μg per dose, 17 days after first dose
  T/C (%): 59%
[5]; [17]
  T/C (%): 42%
[5]; 4.00 μg per dose, Q4D×3, 17 days after first dose
  T/C (%): 27%
[5]; 4.00 μg per dose, Q4D×3, 22 days after first dose
  T/C (%): 15%
[5]; [19]
  T/C (%): 14%
[1]; 3 doses of 4 μg, intraperitoneally Q4D×3, up to 27 days following treatment
  growth of A431 xenografts: significantly (p=0.03) inhibited
[1]; A431, 1.00 μg per dose, 27 days after first dose
  T/C (%): 146%
[1]; A431, 2.00 μg per dose, 27 days after first dose
  T/C (%): 72%
[1]; A431, 2 μg/dose, intraperitoneally Q4D×3 (FIG. 1A)
  time xenografts remained significantly (p=0.004) smaller than the controls: 21 days
[1]; A431, 4.00 μg per dose, Q4D×3, 27 days after first dose
  T/C (%): 21% and 35%
[1]; A431, 4.00 μg per dose, Q4D×3, 28 days after first dose
  T/C (%): 12%
[1]; A431, 2 μg Q4D×3
  average tumor size as % of the control tumors: 23%
[1]; A431, 4 μg Q4D×3
  average tumor size as % of the control tumors: 11%
[1]; [14]
  tumor growth inhibition of A431 xenografts: Significant growth inhibition
[6]
  T/C (%): 36%
[7]; 0.75 μg per dose, 21 days after first dose
  T/C (%): 33%
[7]; 1.50 μg per dose, 21 days after first dose
  T/C (%): 77%
[7]; [20]
  T/C (%): 5%
[7]; 3.00 μg per dose, 21 days after first dose
  T/C (%): 5%
[7]; [21]
  T/C (%): 1%
[7]; 4.00 μg per dose, Q4D×3, 35 days after first dose
  T/C (%): 1%
[8]; [17]
  T/C (%): 45%
[8]; [19]
  T/C (%): 32%
[8]; 4.00 μg per dose, Q4D×3, 34 days after first dose
  T/C (%): 30%
[9]; [17]
  T/C (%): 37%
[9]; [19]
  T/C (%): <1%
[10]; [15]
  T/C (%): 55%
[10]; [16]
  T/C (%): 41%
[10]; [20]
  T/C (%): 54%
[10]; 4.00 μg per dose, Q4D×3, 27 days after first dose
  T/C (%): 19%
[10]; [18]
  T/C (%): 60%
[10]; [21]
  T/C (%): 48%
[10]; 4.00 μg per dose, Q4D×3, 31 days after first dose
  T/C (%): 39%
[10]; 4.00 μg per dose, Q4D×3, 33 days after first dose
  T/C (%): 39% and 42%
[11]; LOVO colon carcinoma, 4 μg CalichDMH per mouse, intraperitoneally Q4D×3 (FIG. 5)
  T/Cmin value (minimum T/C-value observed during an experiment): exceptionally high
[11]; 25 days after first dose
  T/C (%): 80%
[11]; 29 days after first dose
  T/C (%): 47% and 76%
[12]
  T/C (%): 33%

## hp67.6-Amide-CalichDMA: hp67.6 linked to CalichDMA with the acid stabile Amide (4-mercapto-4-methyl-pentanoic acid) linker
[1]; [13]
  tumor growth inhibition of A431 xenografts: did not inhibit tumor growth
[1]; [14]
  tumor growth inhibition of A431 xenografts: did not yield significant tumor growth inhibition
